Source: patent US20220233688A1, “ADJUVANTS FOR IMMUNOGENIC COMPOSITIONS AND METHODS OF USE THEREOF” (UNIVERSITY OF MARYLAND, BALTIMORE, priority 2019, published 2022)
Entries after “also recorded” stand apart in the source; their conditions may differ.

Columns and labels:
[1] = tested on: A/Netherlands/602/2009 (H1N1) (NL/09) virus; assay type: in vivo, BALB/c mice; settings: 7 days
[2] = tested on: HPV16-L1 VLPs; parameters: species or system BALB/c mice; settings: mouse, in vivo
[3] = tested on: RSV A2; assay type: in vivo, Balb/c mice; settings: IM days 0 and 21, RSV A2 challenge, lung four days after challenge (day 39)
[4] = tested on: Cal/09 rHA; parameters: species or system BALB/c mice; settings: mouse, in vivo
[5] = tested on: A/Netherlands/602/2009 (H1N1) (NL/09) virus; assay: Lung tissue histology inflammation scoring after NL/09 challenge; assay type: in vivo, BALB/c mice; settings: 0.04 ug rHA alone or with 100 ug Alum or 50 ug PHAD/BECC, prime-boost
Method: Staining of lung tissue was performed by the UMB EM and Histology Laboratory to assess any histological signs and potential clearing of viral infection. 4% Paraformaldehyde-fixed (Sigma-Aldrich, St Louis, Mo.) lungs were embedded in paraffin and sectioned before staining with haematoxylin and eosin (H&E). Representative slides were selected to most accurately portray the condition of the lungs within each group of vaccinated mice. Pathology scoring was performed by Dr (LT) Robert Kitz, Anatomic Pathologist, Walter Reed National Military Medical Center, Bethesda, Md. Lung sections from each mouse were scored based on overall inflammation using the following scoring parameters (group scores averaged): 0=no inflammation, 1=scant inflammation (<5% multifocal or one small focus); 2=prominent inflammation, <25% parenchyma; 3=prominent inflammation, 25-50% parenchyma; 4=diffuse inflammation, 50-75% parenchyma; 5=diffuse inflammation, >75% parenchyma.

[6] = reported in literature (21); cited from earlier work

## phosphorylated hexa-acyl disaccharide [PHAD]
[1]
  average weight loss: 10%
[2]
  L1 ELISA Ab levels: greater L1 ELISA Ab levels compared to alum alone
[3]
  protection by lung viral titers: full protection in the lower respiratory tract
[4]
  Day 28 total serum IgG antibody titer: significant difference between the HA alone and PHAD groups; also recorded: somewhat higher
  HA-specific IgG2a titer: significantly higher than sham
[5]
  histological inflammation scoring of lung: low inflammation scores with minimal bronchiolar or periarterial inflammation

## CCCCCCCCCCCCCC(=O)O[C@H](CCCCCCCCCCC)CC(=O)O[C@@H]1[C@@H](NC(=O)C[C@H](CCCCCCCCCCC)OC(=O)CCCCCCCCCCCCC)[C@H](OC[C@H]2O[C@H](O)[C@H](NC(=O)C[C@H](O)CCCCCCCCCCC)[C@@H](OC(=O)C[C@H](O)CCCCCCCCCCC)[C@@H]2O)O[C@H](CO)[C@H]1OP(=O)(O)O [GLA, glucopyranosyl lipid-A]
[6]
  particle size of aqueous formulation: 90 nm
